Assay results reported in patent publication US7223733B2, “Modulation of TRIP-Br function and method of treating proliferative disorders” (National University of Singapore, priority 2004, dated 2007).
Where no end group is shown, it is not given here.

What was measured:
cyclins A, D and E = test: Western blot of cyclins A, D and E in U2OS cells exposed to decoy peptides; type: cell-based, human; details: U2OS, 5, 10 or 20 μM, 48 h
Protocol: Denaturing SDS-PAGE and western blotting. Proteins from whole cell lysate and IP complexes were separated using standard denaturing polyacrylamide gel electrophoresis as described previously (Hsu, S. I. H., et al. EMBO J 20, 2273-2285 (2001)).
FIG. 8: The role(s) of the TRIP-Br integrator function in cyclin E regulation. (A) Western blot analysis of the expression of cyclins A, D and E in whole cell extracts derived from U2OS cells exposed to 5, 10 or 20 μM of decoy peptides for 48 h. Cdk2 served as a loading control; (B) Dosage-dependent effects of decoy peptides on Fbxw7 expression. U2OS cells exposed to 5, 10 or 20 μM of decoy peptides were analyzed for Fbxw7 mRNA transcript levels by semi-quantitative RT-PCR. H-actin was co-amplified as an internal control; (C) cyclin-E and Fbxw7 expression was analyzed by semi-quantitative RT-PCR using total RNA from sub-confluent U2OS ER-E2F-1 cells grown with or without OHT and/or cycloheximide (CHX) for 2 h as indicated. H-actin was included as an internal control.

[1] = tested on: Caski (cervical carcinoma); test: Anti-proliferative phenotypes in Caski cells; type: cell-based; details: data not shown
[2] = tested on: KRIP-1-associated co-activating function on GAL4-TRIP-Br transcriptional activity; test: GAL4-TRIP-Br/KRIP-1 luciferase reporter assay in U2OS cells; type: cell-based, human; details: 50 μM decoy peptide
Protocol: DNA Transfection and Sequential β-Galactosidase/Luciferase Assay. For luciferase reporter assays, U2OS cells were cultured in 6-well dishes and transfected 24 h later with various reporter plasmids by the calcium precipitation method as previously described (Martin, K., et al. Nature 375, 691-694 (1995)). 24 h following precipitate removal, cells were exposed for 5 h to either vehicle (0.5% DMSO) or 50 μM of decoy peptide, prior to harvesting. Cells were scraped in 200 μl of lysis buffer and a single 10 μl aliquot of lysate was immediately used for sequential measurement of β-galactosidase and luciferase activity using the Dual Light System (Tropix). For protein overexpression experiments, U2OS cells were cultured in 6-well plates at a density of 1×10^5 cells/well and transfected 24 h later with Superfect reagent (QIAGEN).
FIG. 1: TRIP-Br decoy peptides antagonize KRIP-1/TRIP-Br PHD-bromodomain interactions. […] GAL4-KRIP-1 was specifically immunoprecipitated by the agarose-conjugated anti-GAL4 antibody (Lanes 3-5 & 7–10) but not by the non-specific control anti-cyclin E antibody (Lane 6); (B) Antagonism of PHD-bromodomain interactions in vivo. U2OS cells were transiently transfected with 0.4 μg of the indicated GAL4 expression constructs and 1.2 μg of pMT3A/KRIP-1, along with 0.4 μg of the minimal luciferase reporter pG5-GL3 and 0.1 μg of the control reporter pCMV/β-gal. […]

[3] = tested on: CNE2 (nasal pharyngeal carcinoma); test: Anti-proliferative phenotypes in CNE2 cells; type: cell-based, human; details: data not shown
CNE2 tumor = test: Chick embryo chorioallantoic membrane (CAM) tumor xenograft model; type: in vivo; details: 50 μM topically, daily; p<0.05
Source text: Cell lines. Human nasopharyngeal cancer cell line CNE2 and human melanoma cell line Mewo were used for tumor inoculation.
Chicken embryo CAM preparation. To apply cells onto the CAM of 10-day old chick embryos, a 2-cm diameter wide window was opened in the flat pole of the eggshell with an electric drill equipped with a 0.3-mm thick×22-mm diameter Carborundum disc. The shell window was removed with forceps. The inner shell membrane was carefully punctured with a fine sterile forcep and removed to expose the underlying CAM. A small portion of the CAM was then gently traumatized by laying a strip of lens tissue (1-cm wide) on the surface of the CAM and then removing it immediately.
Inoculation, closure & incubation. The inoculum (1×10^6 cells/egg for CNE2 cell line and 3×10^6 cells/egg for Mewo cell line in 50 μl of blank medium) was applied onto the small patch of traumatized CAM. Following inoculation, the window was covered with a 35 mm tissue culture dish and sealed with scotch tape. The embryos were returned to the incubator in an upright position and allowed to incubate for seven additional days, with daily monitoring.
Peptide treatment & assessment of growth inhibitory effects. The treatment was initiated two days after tumor inoculation.
The eggs were randomized into 4 treatment groups, with each group comprising at least 4 biological replicates. […]

Row | Sequence | cyclin E protein level (cyclins A, D and E) | protein levels of cyclin D1 and cyclin A2 (cyclins A, D and E) | response of Caski cells [1] | KRIP-1-associated co-activating function on GAL4-TRIP-Br transcriptional activity [2] | response of CNE2 cells [3] | growth of CNE2 tumor (tumour weight) (CNE2 tumor)
1 | ERQIKIWFQNRRMKWKKATGCLLDDGLEGLFEDID (ERQIKIWFQNRRMKWKKATGCLLDDGLEGLFEDID-NH2) [*Br1] | dose-dependent accumulation of cyclin E protein | without affecting the protein levels | in manners similar to those exhibited by U2OS cells | complete abolishment | in manners similar to those exhibited by U2OS cells | significantly inhibited the growth of CNE2 tumor
2 | ERQIKIWFQNRRMKWKKTGFLTDLTLDDILFADID (ERQIKIWFQNRRMKWKKTGFLTDLTLDDILFADID-NH2) [*Br2] | dose-dependent accumulation of cyclin E protein | without affecting the protein levels | in manners similar to those exhibited by U2OS cells | complete abolishment | in manners similar to those exhibited by U2OS cells | significantly inhibited the growth of CNE2 tumor
